# According to paper PMC11137182, “Selective and brain-penetrant ACSS2 inhibitors target breast cancer brain metastatic cells” (Frontiers in Pharmacology, 2024):
# Legend:
# [1] = test system: MDA-MB-231BR cells; experiment: Acetyl-CoA quantification by LC-HRMS; format: cell-based; settings: 100 μM, 48 h
# Method: (§1) Cells were grown to ∼80% confluency in a 10-cm dish in normal growth medium, 48 h prior to collecting cells, aspirate media and replace with fresh growth media and drug was added at 100 μM. To collect cells, media was aspirated and 1 mL of 10% trichloroacetic acid (w/v) in water was added directly to the cells. Cells were scraped and transferred into a 1.7 mL Eppendorf tube and stored at −80 until labeling. […] Lysates were centrifuged 17,000 g for 10 min at 4°C and supernatant was transferred to a deep-well 96-well plate for loading in a Tomtec Quadra4 liquid handling workstation. On the liquid handling workstation, lysates were applied to an Oasis HLB 96-well elution plate (30 mg of sorbent per well) pre-conditioned and equilibrated with 1 mL of methanol and 1 mL of water, respectively. After de-salting with 1 mL of water, analytes were eluted into a deep-well 96-well plate using 1 mL of 25 mM ammonium acetate in methanol. Eluent was evaporated dried under nitrogen gas. The dried LC-HRMS samples were resuspended in 50 µL of 5% (w/v) sulfosalicylic acid in water. […] A modified gradient using solvent A (5 mM ammonium acetate in water), solvent B (5 mM ammonium acetate in 95:5 (v:v) acetonitrile: water) and solvent C (0.1% (v/v) formic acid in 80:20 (v:v) acetonitrile: water). Data was acquired using XCalibur 4.0 (Thermo Scientific) and analyzed using Tracefinder 5.1 (Thermo Scientific).
# [2] = test system: 4T1BR cells; experiment: Acetyl-CoA quantification by LC-HRMS; format: cell-based; settings: 100 μM, 48 hours
# Method: as §1
# [3] = test system: MDA-MB-231BR cells; experiment: Cell death by propidium iodide flow cytometry; format: cell-based; settings: 100 μM, 48 h
# Method: (§2) Cells were prepared according to manufacturer protocol (BD Pharmingen, Propidium Iodine). Briefly, cells were trypsinized (0.25% Trypsin), counted, washed twice with 1xPBS, and resuspended in 100uL 1X binding buffer incubated with 5 uL Propidium Iodine (PI) staining solution for 15 min in the dark at room temperature. Following incubation, the volume was brought up to 500uL of 1X binding buffer. Tubes were then analyzed using a Guava easyCyte flow cytometer. All data were collected and analyzed using a Guava EasyCyte Plus system and CytoSoft (version 5.3) software (Millipore). Data are gated and expressed relative to the appropriate unstained and single-stained controls.
# [4] = test system: 4T1BR cells; experiment: Cell death by propidium iodide flow cytometry; format: cell-based; settings: 100 μM, 48 hours
# Method: as §2
# [5] = BBB permeability in vivo (LC-MS, brain over blood); parameters: species or system BalbC mice; settings: mice, 50 mg/kg intraperitoneal, 30 min (AD-5584) or 1 h (AD-8007, VY-3-135)
# Method: Human ACSS2 inhibitors were prepared in 10 mg/mL saline solution. BalbC 4–6 week-old mice were weighed and injected with 50 mg/kg or 100 mg/kg of drug saline solution via intraperitoneal injection. After 30 min or 60 min, mice treated with AD-5584 or AD-8007 and VY-3-135 were placed in isoflurane, and blood was extracted and perfused via intracardiac injection. Following perfusion, mice were decapitated, and their brains were rapidly removed into ice-cold PBS. For analysis of blood samples, 200 µL of blood was transferred and allowed to clot for 15 min at room temperature. Samples were precipitated at 16000xg for 1 min, and 50 µL of serum was transferred. To serum, 200 µL of methanol was added, and samples were centrifuged at 16000 g for 5 min. The supernatant was analyzed by LCMS. For analysis of brain samples, brains were homogenized via bead beating using four 2.3 mm stainless steel beads in 1 mL of MeOH and 0.5 mL of H2O. After centrifugation for 15 min at 3000xg, the supernatant was analyzed by LCMS. LCMS was performed on an Acquity I-Class UPLC system coupled to a Synapt G2Si HDMS mass spectrometer in positive ion mode with a heated electrospray ionization (ESI) source in a Z-spray configuration. […] Data was analyzed using Waters MassLynx and Waters Unifi. Calibration curves of authentic standards were used for quantification.
# [6] = test system: MDA-MB-231BR cells; experiment: Clonogenic survival assay; format: cell-based; settings: 100 μM, 48 h treatment, 10 days growth
# Method: Triple-negative brain trophic cells MDA-MB-231BR and 4T1BR cells were a kind gift from Dr. Patricia Steeg (Center for Cancer Research, National Cancer Institute) ([Achrol et al., 2019]). Both cell lines were cultured in DMEM supplemented with 10% fetal bovine serum (FBS), 5% 10,000 Units/mL Penicillin-10,000 μg/mL Streptomycin, and 5% 200 mM L-Glutamine. For crystal violet staining, 5 × 10^4 cells were plated and subjected to the treatments as described in the individual figures and then stained with 0.5% crystal violet prepared in a 1:1 methanol-water solution followed by PBS washes. ACSS2 inhibitors were dissolved in 100% ultra-pure DMSO.
# To assess clonogenic survival, 1 × 10^5 cells were seeded into a 6-well plate until 70%–80% confluency and treated for 48 h with analogs at 100 uM (unless otherwise stated in the figure legend). After 48 h, cells were trypsinized and counted using hemocytomer, and 1 × 10^4 cells per treatment were plated into a 6-well plate with fresh culture medium and allowed to grow for 10 days. Following 10-day incubation, cells were washed twice with PBS, stained with crystal violet for 30 min, and washed with dH2O twice. Colonies >50mircons were counted. For crystal violet staining, 0.5% crystal violet was prepared in a 1:1 methanol-water solution.
compound,measurement,setting,value
N[C@H](C(=O)N1CCCC(c2ccccc2)(c2ccccc2)C1)C1CC1 [AD-8007],acetyl-CoA levels,[1],significantly reduced acetyl-CoA levels
same,acetyl-CoA levels,[2],significantly reduced acetyl-CoA levels
same,cell death (PI+ cells),[3],significantly increased cell death
same,cell death (PI+ cells),[4],significantly increased cell death
same,level of drug in the brain over blood,[5],detected at significantly higher levels in the brain compared to VY-3-135
same,clonogenic survival,[6],significant reduction in clonogenic survival
